Assay results as given in PubChem BioAssay AID256 (DTP/NCI, 2004).
Several values for one entry are separate records, joined by “and”; a condition that tells them apart may be missing. Equal values may be shown once. Toxic doses and inconclusive results are not listed. Rule for the calls: active = survival T/C of 150% or more; inactive = T/C below 125% in these data.

Tested on: CD2F1 mice, L1210 leukemia ip, survival T/C
Experiment: NCI In Vivo Anticancer Drug Screen. Data for tumor model L1210 Leukemia (intraperitoneal) in CD2F1 (CDF1) mice
Conditions: endpoint: mean survival time, higher = longer survival
Summary of the method: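 Activity against a transplanted murine tumor was judged by comparing the compound group with a vehicle group. The outcome in the treated animals was divided by that in the controls.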

Measured: T/C

O=C1C2CC=CCC2C(=O)N1SC(Cl)(Cl)Cl (stereo unspecified)
inactive: dose: 0.78 mg/kg/injection, schedule: Q01DX009 (ip), vehicle: saline with Tween-80 97 % of control | dose: 1.56 mg/kg/injection, schedule: Q01DX009 (ip), vehicle: saline with Tween-80 97 % of control | dose: 3.12 mg/kg/injection, schedule: Q01DX009 (ip), vehicle: saline with Tween-80 97 % of control | dose: 6.25 mg/kg/injection, schedule: Q01DX009 (ip), vehicle: saline with Tween-80 93 % of control | dose: 12.5 mg/kg/injection, schedule: Q01DX009 (ip), vehicle: saline with Tween-80 101 % of control | dose: 25.0 mg/kg/injection, schedule: Q01DX009 (ip), vehicle: saline with Tween-80 89 % of control

COc1c2c(c(OC)c3c(OC)c4ccccc4c(OC)c13)CC(O)CC2 (stereo unspecified)
inactive: dose: 12.5 mg/kg/injection, schedule: Q01DX005 (ip), vehicle: Klucel (hydroxypropylcellulose) (HPC) 92 % of control | dose: 25.0 mg/kg/injection, schedule: Q01DX005 (ip), vehicle: Klucel (hydroxypropylcellulose) (HPC) 90 % of control | dose: 50.0 mg/kg/injection, schedule: Q01DX005 (ip), vehicle: Klucel (hydroxypropylcellulose) (HPC) 97 % of control | dose: 100.0 mg/kg/injection, schedule: Q01DX005 (ip), vehicle: Klucel (hydroxypropylcellulose) (HPC) 92 % of control | dose: 200.0 mg/kg/injection, schedule: Q01DX005 (ip), vehicle: Klucel (hydroxypropylcellulose) (HPC) 103 % of control | dose: 400.0 mg/kg/injection, schedule: Q01DX005 (ip), vehicle: Klucel (hydroxypropylcellulose) (HPC) 87 % of control

CCCCCCCCCC(=O)NCC[N+](C)(C)C
inactive: dose: 5.0 mg/kg/injection, schedule: Q01DX001 (ip), vehicle: saline 107 % of control | dose: 10.0 mg/kg/injection, schedule: Q01DX001 (ip), vehicle: saline 102 % of control | dose: 20.0 mg/kg/injection, schedule: Q01DX001 (ip), vehicle: saline 103 % of control | dose: 40.0 mg/kg/injection, schedule: Q01DX001 (ip), vehicle: saline 103 % of control | dose: 80.0 mg/kg/injection, schedule: Q01DX001 (ip), vehicle: saline 103 % of control

CCCCCCCCCCC(O)CCCCCCCCCC
inactive: dose: 100.0 mg/kg/injection, schedule: Q04DX003 (ip), vehicle: saline with Tween-80 100 % of control | dose: 200.0 mg/kg/injection, schedule: Q04DX003 (ip), vehicle: saline with Tween-80 90 % of control | dose: 400.0 mg/kg/injection, schedule: Q04DX003 (ip), vehicle: saline with Tween-80 90 % of control

C(#Cc1ccccc1)C[P+](c1ccccc1)(c1ccccc1)c1ccccc1
inactive: dose: 1.25 mg/kg/injection, schedule: Q01DX009 (ip), vehicle: saline with Tween-80 95 % of control | dose: 2.5 mg/kg/injection, schedule: Q01DX009 (ip), vehicle: saline with Tween-80 101 % of control | dose: 5.0 mg/kg/injection, schedule: Q01DX001 (ip), vehicle: saline with Tween-80 102 % of control | dose: 5.0 mg/kg/injection, schedule: Q01DX009 (ip), vehicle: saline with Tween-80 93 % of control and 103 % of control | dose: 10.0 mg/kg/injection, schedule: Q01DX001 (ip), vehicle: saline with Tween-80 106 % of control | dose: 20.0 mg/kg/injection, schedule: Q01DX001 (ip), vehicle: saline with Tween-80 104 % of control

CC12CCC(=O)C=C1CCC1C2CCC2(C)C1CCC2(O)C(=O)Cn1c(=O)cc[nH]c1=O (stereo unspecified)
inactive: dose: 12.5 mg/kg/injection, schedule: Q04DX003 (ip), vehicle: Klucel (hydroxypropylcellulose) (HPC) 100 % of control | dose: 25.0 mg/kg/injection, schedule: Q04DX003 (ip), vehicle: Klucel (hydroxypropylcellulose) (HPC) 93 % of control | dose: 50.0 mg/kg/injection, schedule: Q04DX003 (ip), vehicle: Klucel (hydroxypropylcellulose) (HPC) 94 % of control | dose: 100.0 mg/kg/injection, schedule: Q04DX003 (ip), vehicle: Klucel (hydroxypropylcellulose) (HPC) 93 % of control | dose: 200.0 mg/kg/injection, schedule: Q04DX003 (ip), vehicle: Klucel (hydroxypropylcellulose) (HPC) 93 % of control
